Experiments:
[1] = test system: orchiectomized (ORX) rats; test: Test Example 5: effect of oral administration on prostate, levator ani muscle and femoral bone mineral density in ORX rats; assay type: in vivo, rat
Description: Testes were removed from 12-week-old male SD rats. Starting on the next day, the compound of Example 1 (100 mg/10 ml/kg) was orally administered once daily for four consecutive weeks on a 5-day-a-week basis. As a positive control, testosterone propionate (TP) (10 mg/kg) was subcutaneously administered once daily on a continuous 5-day-a-week basis. The test compound was suspended in a 0.5% methyl cellulose solution used as a solvent whereas TP was dissolved in dimethyl sulfoxide and diluted 10-fold with olive oil for use in the test. In an ORX control group, dimethyl sulfoxide as diluted 10-fold with olive oil was used for the test. Rats which had been falsely operated on without orchiectomy were used as a sham control group. On the next day after final administration, the wet weights of the ventral prostate and levator ani muscle were measured and the right femoral bone mineral density was measured by DEXA (double energy X-ray absorption) to evaluate the in vivo efficacy of the compound of Example 1. The results are shown in Table 19 and in FIGS. 10 to 12.

[2] = target: T1, rat androgen receptors (rat AR) (Rattus norvegicus, UniProt P15207); test: Test for competitive binding to rat androgen receptors (rat AR); details: RBA=100×(IC50 of hydroxyflutamide)/(IC50 of compound); 3H-testosterone, rat prostate AR fraction
T1 construct: from tissue; host or cells: prostate of orchiectomized 11-week-old male SD rats (cytosolic supernatant of homogenate)
T1 sequence (P15207 1-902): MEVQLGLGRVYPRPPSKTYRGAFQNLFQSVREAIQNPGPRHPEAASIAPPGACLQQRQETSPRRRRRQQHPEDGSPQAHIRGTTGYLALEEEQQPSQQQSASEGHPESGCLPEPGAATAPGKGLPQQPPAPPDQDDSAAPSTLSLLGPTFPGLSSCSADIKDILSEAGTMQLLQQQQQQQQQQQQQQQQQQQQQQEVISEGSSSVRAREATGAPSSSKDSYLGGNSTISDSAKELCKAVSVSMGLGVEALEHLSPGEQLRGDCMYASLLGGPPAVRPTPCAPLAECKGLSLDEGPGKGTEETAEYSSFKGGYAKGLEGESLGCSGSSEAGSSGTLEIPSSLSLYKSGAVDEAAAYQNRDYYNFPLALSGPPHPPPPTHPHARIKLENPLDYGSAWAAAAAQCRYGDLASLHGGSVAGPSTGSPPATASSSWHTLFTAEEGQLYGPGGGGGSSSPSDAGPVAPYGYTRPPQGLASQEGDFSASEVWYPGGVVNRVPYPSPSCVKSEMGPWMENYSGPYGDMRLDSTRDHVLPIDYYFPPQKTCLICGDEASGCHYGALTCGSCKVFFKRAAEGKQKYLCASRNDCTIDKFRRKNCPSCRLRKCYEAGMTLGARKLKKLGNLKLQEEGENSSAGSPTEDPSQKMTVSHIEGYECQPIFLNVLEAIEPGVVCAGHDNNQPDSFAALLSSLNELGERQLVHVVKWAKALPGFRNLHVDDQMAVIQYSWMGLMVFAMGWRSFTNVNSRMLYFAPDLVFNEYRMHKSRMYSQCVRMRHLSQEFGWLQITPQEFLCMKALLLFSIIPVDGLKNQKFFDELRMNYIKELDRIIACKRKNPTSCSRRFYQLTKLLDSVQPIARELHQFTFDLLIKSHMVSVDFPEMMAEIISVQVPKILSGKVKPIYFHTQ
Description: Preparation of a rat AR fraction: Prostates were harvested into ice-cooled ET buffer (10 mM Tris, 1 mM EDTA, 5 mM DTT, 10 mM sodium molybdate, pH 7.4) 3 days after orchiectomy in 11-week-old male SD rats. The prostate was finely cut, and ET buffer was added, whereafter the mixture was homogenized using a homogenizer. The homogenate was ultracentrifuged (100,000×g, 60 min, 4° C.), and the supernatant was used as a rat AR fraction (hereinafter referred to as ARF).
Binding test: ^3H-testosterone (hereinafter referred to as ^3H-T) was diluted with ET buffer. Dihydrotestosterone (DHT) was prepared so as to have a final concentration of 1 μM which was 400 times the maximum concentration of ^3H-T (2.5 nM). The ^3H-T solution was added to a 1.5 ml tube containing DHT, no DHT, or various concentrations of a test compound. Further, 200 μg ARF was added to adjust the final volume to 100 μl. The mixture was incubated for 2 hours at 4° C., and then 300 μl of a 0.05% dextran T70-1.0% activated carbon solution was added. The mixture was further incubated for 15 minutes in ice to remove the free ^3H-T by adsorption. After centrifugation (4° C., 2,500 rpm, 5 min), 275 μl of the supernatant was harvested into a liquid scintillation vial, and 2 ml of Clear Sol was added. The mixture was stirred, allowed to stand, and measured for ^3H radioactivity with a liquid scintillation counter.
Calculation of the relative binding inhibition rate: The binding inhibition rate (%) of the compound according to the present invention was calculated from the following equation, and the 50% inhibition concentration (IC50) was calculated by the probit analysis of the concentration-binding inhibition curve.
The relative binding inhibition rate (RBA: Relative Binding Affinity) was determined from the following equation (Endocrinology 138, 863-870, 1997): RBA=100×(IC50 of hydroxyflutamide)/(IC50 of a compound of the present invention)

[3] = test system: orchiectomized (ORX) rats; test: Test Example 2: effect on prostate, levator ani muscle and femoral bone mineral density in ORX rats (subcutaneous); assay type: in vivo, rat; details: for Femoral bone mineral density / Weight of levator ani muscle / Weight of prostate: 5 days a week, 4 weeks
Description: Testes were removed from 12-week-old male SD rats. Starting on the next day, the compound of Example 1 (3, 10, 30 mg/kg) or DHT (0.1, 1, 10 mg/kg) was subcutaneously administered once daily for four consecutive weeks on a 5-day-a-week basis. The Example compound and DHT were dissolved in dimethyl sulfoxide and diluted 10-fold with olive oil to prepare solutions with various concentrations for use in the test. In an ORX control group, dimethyl sulfoxide as diluted 10-fold with olive oil was used for the test. Rats which had been falsely operated on without orchiectomy were used as a sham control group. On the next day after final administration, the wet weights of the ventral prostate and levator ani muscle were measured and the right femoral bone mineral density was measured by DEXA (double energy X-ray absorption) to evaluate the in vivo efficacy of the compound of Example 1.

[4] = 100 mg/kg PO once daily, 5 days a week, 4 weeks

COCC(=O)NCC(C)(C)[C@H]1Nc2ccc([N+](=O)[O-])cc2C2C=CC[C@H]21 (relative stereo) [Example 1, (3aR*,4S*,9bS*)-2-methoxy-N-[2-methyl-2-(8-nitro-3a,4,5,9b-tetrahydro-3H-cyclopenta[c]quinolin-4-yl)propyl]-1-acetamide]
Femoral bone mineral density [1, 4]: 135 ± 6 mg/cm^2 | Weight of levator ani muscle [1, 4]: 87 ± 5 mg/100 g body weight | Weight of prostate [1, 4]: 117 ± 23 mg/100 g body weight | Prostate weight as % of the level of the sham control group ([1]; 100 mg/kg orally): about 75% | RBA (Relative Binding Affinity) [2]: 1076 | Femoral bone mineral density ([3]; 3 mg/kg sc once daily): 116 ± 6 mg/cm^2 | Weight of levator ani muscle ([3]; 3 mg/kg sc once daily): 56 ± 7 mg/100 g body weight | Weight of prostate ([3]; 3 mg/kg sc once daily): 41 ± 8 mg/100 g body weight | Femoral bone mineral density ([3]; 10 mg/kg sc once daily): 119 ± 3 mg/cm^2 | Weight of levator ani muscle ([3]; 10 mg/kg sc once daily): 65 ± 6 mg/100 g body weight | Weight of prostate ([3]; 10 mg/kg sc once daily): 61 ± 10 mg/100 g body weight | Prostate weight as % of the level of the sham control group ([3]; 30 mg/kg sc): about 80% | Femoral bone mineral density ([3]; 30 mg/kg sc once daily): 122 ± 1 mg/cm^2 | Weight of levator ani muscle ([3]; 30 mg/kg sc once daily): 71 ± 4 mg/100 g body weight | Weight of prostate ([3]; 30 mg/kg sc once daily): 82 ± 10 mg/100 g body weight

— patent US20060128737A1, “Androgen receptor agonists” (KAKEN PHARMACEUTICAL CO., LTD., priority 2003, published 2006)
